Measurements taken from patent US5859032A, “Pyridine derivative, anti-ulcer drug, and antibacterial drug” (priority 1996, dated 1999).

Tests used:
[1] = test system: isolated gastric fundic gland; assay: CAP: Acid Secretion Inhibition Test In Vitro ([14C]-aminopyrine uptake test); assay type: cell-based, Japanese White rabbit; conditions: 10^-5 M, histamine 10^-5 M, 37° C.; for inhibition at 10 µM: Oryctolagus cuniculus, 40 min, read-out: CAP: acid secretion inhibitory rate
Method: CAP: Acid Secretion Inhibition Test In Vitro
The acid secretion inhibitory activity in a cell level is studied. It can also be used for studying the mechanism of the effect. […]
ii-a) Preparation of isolated gastric fundus gland suspension
First, an isolated gastric fundic gland sample was prepared. Namely, a male Japanese White rabbit (2.5 to 3 kg) was anesthetized to death with Nembutal™ and then the abdomen was incised. Immediately thereafter, the stomach was removed and, after its pyloric and cardiac antrum were severed, incised along its greater curvature into two sheets. The gastric contents adhering to the mucosal surface was washed out with ice-cooled PBS (-) and then carefully washed therein. The gastric wall was spread on a cork board with its mucosal surface facing up and the feed and mucus thereon were completely removed with sterile gauze. The mucosa was separated therefrom by a spatula and then collected in ice-cooled PBS (-). After being washed twice with PBS (-), the mucosa was minced into 2-3 mm^3 pieces by scissors. These pieces were further washed twice with a nutrient solution. The nutrient solution comprises 132.4 mM of NaCl, 5.4 mM of KCl, 5 mM of Na2 HPO4. 12H2 O, 1 mM of NaH2 PO4. 2H2 O, 1.2 mM of MgSO4, 1 mM of CaCl 2, 25 mM of HEPES, 2 mg/ml of glucose, and 1 mg/ml of BSA. Into 70 ml of the nutrient solution containing 1 mg/ml of collagenase, minced mucosal pieces were dispersed and intensely stirred in a conical flask with a stirrer at 37° C. for 40 to 60 minutes. During this period, 100% O2 was sprayed on the nutrient solution surface and the pH was appropriately measured such that it was immediately adjusted to pH 7.4, when the value was therebelow, with a base. The nutrient solution was added to the reaction solution so as to attain the total amount of about 200 ml. After being filtered through a mesh, the suspension was divisionally introduced into 50 ml centrifuge tubes and left for 15 minutes such that gastric fundic gland was deposited. The supernatant was repeatedly removed by an aspirator, dispersed in the nutrient solution, and then left such that the gastric fundic gland was washed three times. At this time, without using a pipette, the suspension was alternately introduced into two centrifuge tubes so as to effect dispersion. The number of cells was counted under microscope and adjusted to 1.6×10^6 cells/ml. […]
ii-b) [^14 C]-aminopyrine uptake test
Then, [^14 C]-aminopyrine uptake test was performed. After an Eppendorf tube was weighed, 10 μl (final concentration: 10^-5 M) of histamine dissolved in the above-mentioned nutrient solution, 10 μl (final concentration: 10^-5 M) of the test compound dissolved in DMSO, and 10 μl (final concentration: 0.05 μCi/ml) of [^14 C]-aminopyrine diluted with the nutrient solution were introduced therein and then 970 μl of the isolated gastric fundic gland suspension prepared above was added thereto. Subsequently, this mixture was shaken at 37° C. for 40 minutes at 125 cycles/minute. After being centrifuged for 30 minutes, 200 μl of its supernatant was collected into a mini-vial, while the rest was removed by an aspirator. The gland pellet was completely dried as the tube with its lid being opened was kept for one night in a drying oven at 80° C. and then the lid was closed and the weight was determined at room temperature. Then 100 μl of 1N KOH was added thereto and the tube with its lid being closed was treated at 60° C. for 1 to 2 hours so as to dissolve the pellet. Then, the contents thereof were transferred to a mini-vial. Into the mini-vial containing the supernatant or gland pellet, 4 ml of Atomlite™ was added and then the radioactivity was measured by a liquid scintillation counter. Here, after the radioactivity of the gland pellet was corrected by using a sample in which 20 mM of NaSCN was added so as to cancel the hydrogen ion concentration gradient, the integration ratio of aminopyrine specifically trapped by the gland pellet was calculated. […]

[2] = MTT: Cell Damaging and Protecting Effect Test; assay type: cell-based, Japanese White rabbit; conditions: rabbit, gastric mucosa cells, 10^-4 M, 37° C., smaller value is better, read-out: MTT: cell damaging rate
From the text: MTT: Cell Damaging and Protecting Effect Test
It is confirmed that there is no toxicity in cell level. Those having a toxicity in cell level are inappropriate as an anti-ulcer drug.
A male Japanese White rabbit (2.5 to 3 kg) was anesthetized to death by Nembutal™ and, immediately thereafter, its stomach was removed. The greater curvature of the stomach was incised so as to remove the stomach contents therefrom. After the mucosal surface was washed with HBSS (Hanks' Balanced Salt Solution), the stomach in ice-cooled HBSS was transferred to a laboratory. Then, after the pyloric antrum was removed, the gastric corpus mucosa was separated by a spatula and then minced into 2 to 3 mm^3 pieces in BME (Basal Medium Eagle). Thereafter, these pieces were shaken at 120 to 130 cycles/minute for 15 minutes at 37° C. in BME 60 ml containing 280 U/ml of dispase and 30 to 50 U/ml of collagenase. Here, the concentration of collagenase was appropriately changed for each lot in view of the state of cells. The pieces were washed twice with EBSS (Earle's Balanced Salt Solution) containing 1 mM of EDTA and then shaken in MEM (Minimum Essential Medium) containing 1 mM of EDTA at 37° C. for 5 minutes. Subsequently, they were shaken in the dispase and collagenase having the same concentrations as those mentioned above for 15 minutes so as to remove the supernatant and then further shaken at 37° C. for 50 to 60 minutes at 120 to 130 cycles/minute. Then, after being washed twice with HBSS, Ham F12 containing 2% of Ultrocer GT™ was used to attain the concentration of 1×10^6 cells/ml. Thus formed suspension was dispensed in each well of a 96-well plate by 200 μl. The plate was incubated in the atmosphere composed of 5% CO2 and 95% air at 37° C. for three days so as to attain a confluent state and then subjected to MTT assay.
The sample compound was dissolved in DMSO so as to attain a concentration of 10^-2 M and then diluted with HBSS containing 2% of Ultrocer G™ so as to attain a final concentration of 10^-4 M. To each group, which 8 wells were used for, 10 μl of MTT reagent was added immediately after 100 μl of the medium in each well was exchanged for same volume of the resulting solution of the sample compound. After being incubated in an atmosphere composed of 5% CO2 and 95% air at 37° C. for 4 hours, thus formed solution was centrifuged and then its supernatant was discarded. Subsequently, 100 μl of 100% ethanol was added to the residue so as to dissolve MTT formazan. Then, the absorbance (OD: 570 to 630) was measured by a microplate reader. This method utilizes a phenomenon in which MTT is changed to MTT formazan only by mitochondria of living cells so as to change color.
The cell damaging or cell protecting effect of the sample compound at the final concentration of 10^-4 M was expressed as cell damaging rate (%) as follows:
cell damaging rate (%)=(1-(absorbance in sample group/absorbance in control
Accordingly, the smaller value is better in the cell damaging rate.

[3] = test system: stress ulcer formation (rats); assay: WIS: Restraint and Water Immersion Stress-Induced Ulcer Inhibition Test; assay type: in vivo, rat (male Crj:SD or Slc:SD); conditions: rat, 100 mg/kg, oral, 7 hours water immersion stress
Method: WIS: Restraint and Water Immersion Stress-Induced Ulcer Inhibition Test
The degree of inhibition of the stress ulcer formation is tested.
Male Crj:SD or Slc:SD rats (6 to 7-week-old) were fasted overnight, but allowed free access to water. Each group has 5 to 8 of these rats. […] To a control group, the vehicle was administered. 10 minutes later, the rats were placed in a stress cage and immersed to the level of xipfoid process in a water bath (21° C.) for 7 hours. At the end of the stress, the rats were sacrificed by inhalation of ether or carbon dioxide. Then, the stomach of each was removed, inflated by injecting 10 ml of 5% formalin neutral buffer solution, and immersed in 1% formalin neutral buffer solution for 30 minutes or more to be fixed. The stomach was incised along the greater curvature and then the length of each erosion in the glandular portion was determined under dissecting microscope. The sum of the length of erosions per stomach was defined as ulcer index (UI).
The effect obtained when 100 mg/kg of the sample compound had been administered was expressed as ulcer formation inhibitory rate (%) as follows:
ulcer formation inhibitory rate (%)=(1-(UI in sample group/UI in control

mice = conditions: mouse, in vivo
Method: AT: Single Dose Toxicity Pretest
Male Slc:ICR mice (5-week-old) were used. Each group has 3 to 5 mice and each mouse was fasted, but allowed free access to water, for 4 to 5 hours from 9 a.m. in the test day. Then, 2,000 mg/10 ml/kg of the sample compound dissolved or suspended in an aqueous solution of 0.5% sodium carboxymethyl cellulose was orally administered thereto. To a control, only the vehicle was administered. […] The body weight was measured before and after the fasting as well as at the same time everyday. The dead animals were immediately subjected to autopsy and their organs were observed microscopically. Also, the living animals were sacrificed with ether or carbon dioxide one week after the administration and then their organs were observed microscopically.
The toxicity at the single dose of 2,000 mg/kg of the sample compound was expressed as being classified into 5 levels.
5: Mortality rate is 0%; no toxicity is found at all both in behavior and organs.
4: Mortality rate is 0%; while no toxicity is found in organs, slight toxicity is observed in behavior and body weight increase.
3: While there is a dead animal (though not all the animals are dead), no toxicity is found in organs.
2: Regardless of whether there is a dead animal or not, toxicity is found in organs.
1: All the animals are dead.

[4] = test system: gastric acid secretion (pylorus-ligated, histamine-stimulated rats); assay: VOL, TAO: Acid Secretion Inhibition Test In Vivo; set-up: species or system rat (male Crj:Donryu); conditions: rat, 100 mg/kg, oral; histamine 30 mg/kg s.c.
Method: VOL, TAO: Acid Secretion Inhibition Test In Vivo
Inhibitory effect on acid secretion in vivo is confirmed.
Male Crj:Donryu rats (7-week-old) were fasted overnight but allowed free access to water. In each group, 8 to 10 of these rats were used under urethane anesthesia (1.25 g/kg). […] 30 minutes later, the abdomen of each was incised and the pylorus was ligated. 30 minutes after the ligation, 30 mg/kg of histamine dissolved in physiological saline was subcutaneously administered and, 3 hours thereafter, the rat was sacrificed with carbon dioxide. Immediately thereafter, each stomach was removed and the gastric contents were collected and each volume was determined. The total acid output was determined by titration of the gastric juice with 0.1N NaOH.
With respect to the gastric juice volume (VOL) and the total acid output (TAO), the effects obtained when 100 mg/kg of the sample compound had been administered were expressed as their respective inhibitory rates (%) as follows:
each inhibitory rate (%)=(1-(value in sample group/value in control

gastric mucosa = assay: PD: Gastric Mucosal Integrity Test; assay type: in vivo, rat (male CDj:SD); set-up: key: 5: Same as the control with no recognizable damage at all.; 4: Though a slight PD-decreasing tendency suggesting a slight possibility of mucosal damage is found, there is no problem.; 3: Though a weak decrease in PD and a possibility of a weak mucosal damage is recognized, there is no substantial problem.; 2: Medium degree of decrease in PD is found and a mucosal damage is recognized.; 1: Heavy degree of decrease in PD is found and a remarkable mucosal damage is recognized; conditions: rat, 100 mg/kg into chamber, 60 minutes
Method: PD: Gastric Mucosal Integrity Test
In this case, since the sample compound has a necrotizing effect, it is inappropriate as an anti-ulcer medicament.
Therefore, the gastric mucosal potential difference (PD), which reflects the integrity of the gastric mucosa, is measured so as to confirm that the sample compound has no damaging effect on gastric mucosa, which is toxicity at gastric mucosal level.
Male CDj:SD rats (7 to 8-week-old) were fasted overnight, but allowed free access to water, and then, under urethane anesthesia (1.25 g/kg, i.p.), fixed to a cork board on its back. The abdomen of each rat was incised, and a small incision was made in the forestomach. Then, the inside of the stomach was washed with physiological saline heated at 37° C. From the forestomach, along the greater curvature thereof, the stomach was incised without damaging blood vessels. After the height of the cork board was adjusted on a jack, the stomach was mounted on ex vivo chamber. The area of the gastric mucosa exposed to the inside of this chamber was 2.5 cm^2. The inside of the chamber was perfused with physiological saline warmed at 37° C. by micro tube pump. By using an agar bridge containing 3M KCl, the potential difference between the chamber and the abdominal cavity was measured by a PD meter. Here, the rectal temperature was measured to control the body temperature during the experiment. […] To a control, the vehicle was administered.
The change in PD during 60 minutes after the administration of 100 mg/kg of the sample compound was collectively studied and, with reference to the positive control, classified into 5 levels as follows:
5: Same as the control with no recognizable damage at all.
3: Though a weak decrease in PD and a possibility of a weak mucosal damage is recognized, there is no substantial problem.
2: Medium degree of decrease in PD is found and a mucosal damage is recognized.
1: Heavy degree of decrease in PD is found and a remarkable mucosal damage is recognized.

Structure (SMILES) | inhibition at 10 µM [1] [%] | cytotoxicity at 4 h, 100 µM [2] [%] | WIS: ulcer formation inhibitory rate [3] [%] | AT: toxicity at the single dose (5 levels) (mice) | CAP: acid secretion inhibitory rate ([1]; 40 minutes) [%] | TAO: total acid output inhibitory rate [4] [%] | VOL: gastric juice volume inhibitory rate [4] [%] | PD: change in gastric mucosal potential difference (5 levels) (gastric mucosa)
CC(C)=CCC/C(C)=C/COc1ccc(OC/C=C(\C)CCC=C(C)C)c(C(=O)NCCc2ccncc2)c1 [Example 5, 4-[2-(2,5-digeranyloxybenzoylamino)ethyl]pyridine] | 99 | -17 | 35 | – | – | – | – | –
CC(C)Cc1cc(C(=O)NCCc2ccncc2)ccc1OCc1ccc(F)cc1 [Example 14, 4-[2-[4-(4-fluorobenzyloxy)-3-isobutylbenzoylamino]ethyl]pyridine] | 97 | – | 91 | 4 | – | – | – | –
CC(C)Cc1cc(C(=O)NCCc2ccncc2)ccc1OCc1ccc(F)cc1.Cl [Example 15, 4-[2-[4-(4-fluorobenzyloxy)-3-isobutylbenzoylamino]ethyl]pyridine hydrochloride] | – | – | 86 | – | 95.1 | – | – | –
COc1ccc(NCCNC(=O)c2ccc(OC/C=C(\C)CCC=C(C)C)cc2)cn1 [Example 9, 3-[2-(4-geranyloxybenzoylamino)ethylamino]-6-methoxypyridine] | 77 | 8 | 42 | – | – | – | – | –
CC(C)=CCC/C(C)=C/COc1ccc(C(=O)NCCSc2ccc(C(F)(F)F)cn2)cc1 [Example 12, 2-[2-(4-geranyloxybenzoylamino)ethylthio]-5-trifluoromethylpyridine] | – | -14 | 37 | 5 | – | -10 | -5 | 5
